Source: patent US20080114031A1, “MONOSACCHARIDE DERIVATIVES” (priority 2006, published 2008)

Columns and labels:
[1] = target: T1, recombinant 5-Lox (Homo sapiens, UniProt P09917); test: Assay for 5-Lipoxygenase Activity; format: biochemical; conditions: arachidonic acid, absorbance at 236 nm (AUC), range stated for the group of compounds tested, read-out: 5-1, poxygenase inhibition IC50
T1 sequence (P09917 1-674): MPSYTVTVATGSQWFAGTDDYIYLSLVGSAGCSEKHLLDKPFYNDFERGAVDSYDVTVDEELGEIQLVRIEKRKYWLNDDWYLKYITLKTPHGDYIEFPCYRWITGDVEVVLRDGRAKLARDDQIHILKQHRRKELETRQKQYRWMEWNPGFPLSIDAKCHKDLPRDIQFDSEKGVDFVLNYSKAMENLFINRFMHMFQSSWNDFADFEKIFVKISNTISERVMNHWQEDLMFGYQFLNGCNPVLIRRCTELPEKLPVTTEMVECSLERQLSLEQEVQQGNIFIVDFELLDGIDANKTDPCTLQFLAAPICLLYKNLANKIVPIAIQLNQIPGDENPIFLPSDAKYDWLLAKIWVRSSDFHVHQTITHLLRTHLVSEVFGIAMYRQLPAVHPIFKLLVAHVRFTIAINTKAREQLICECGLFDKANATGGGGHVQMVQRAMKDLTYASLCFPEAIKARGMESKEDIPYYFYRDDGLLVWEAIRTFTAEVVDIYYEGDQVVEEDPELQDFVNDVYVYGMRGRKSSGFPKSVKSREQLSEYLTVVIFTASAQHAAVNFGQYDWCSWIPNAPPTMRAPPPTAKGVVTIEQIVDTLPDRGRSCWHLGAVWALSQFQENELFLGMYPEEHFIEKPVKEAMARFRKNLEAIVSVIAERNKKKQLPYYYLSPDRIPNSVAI
Protocol: Assay for 5-Lipoxygenase Activity
In a 96 well UV-plate, 100 μl of phosphate buffer saline (PBS) containing DTT (200 μM), ATP (100 μM) and calcium chloride (100 μM) was added. To each well 0.5 μl of test drug (200 times concentrated) or vehicle was added, followed by 4 μl of recombinant 5-Lox (3 units/μl) and was incubated at 37° C. for 5 min. The reaction was initiated by adding 1 μl of 1 mM freshly prepared arachidonic acid and increase in absorbance was monitored at 236 nm for 10 min. (J Biol. Chem. 261:11512, 1986) A plot of absorbance verses time curve was prepared and area under curve (AUC) was computed for each well. Percent inhibition of AUC for different treatments was calculated with respect to the difference between the Arachidonic acid stimulated and negative control values, to compute IC50 values.

[2] = test system: LTB4 release; test: A23187 Induced LTB4 Release; format: cell-based; conditions: Neutrophil; neutrophils from healthy human donors, 1 hour with test drug, 0.3 μg/ml A23187 for 10 min, LTB4 ELISA; range stated for the group of compounds tested; read-out: A123187 induced LTB4 release IC50
Protocol: The compounds of the present invention are tested in one or both of the assays described herein. Standard assays are used to evaluate activity of compounds in present invention on inflammatory cells. Attenuation of agonist-induced release of lipid mediator of neutrophil chemotaxis, leukotriene B4 (LTB4), is used to evaluate Inhibitory effect on neutrophils.
Venous blood was collected from healthy human donors using heparin as an anti-coagulant. Neutrophils were isolated from freshly drawn blood after dextran sedimentation and ficoll separation (Eur J Biochem. 169, 175, 1987), 180 μl of the of neutrophil suspension (0.2×10^6 cells/ml) was taken and added 19 μL of Hank's Buffer salt solution along with 1 μL of the test drug (200 times concentrated) in a 24 well plate and incubated at 37° C. for 1 hour, 3 minutes before the end of test compound incubation, 0.25 mM Ca^++/Mg^++ were added. Then, 0.3 μg/ml A23187 (Sigma Chem, USA) was added and incubated for further 10 min at 37° C. The reaction was stopped by adding 80 μL of cold methanol and centrifuged to remove cell debris (J Pharmacol Exp Ther. 297:267, 2001). The samples were analysed for LTB4 release using LTB4ELISA kits (Assay Design Inc., USA). The amount of LTB4 released was quantified and percent inhibition of LTB4 release was calculated with respect to the difference between the A23187 stimulated and negative control cells, to compute IC50 values.

Row | Compound | IC50 [1] [µM] | IC50 [2] [µM]
1 | CC1(C)O[C@H]2O[C@H]([C@H]3COC(C)(C)O3)[C@@H](NC(=S)Nc3ccc(Cl)c(Cl)c3)[C@H]2O1 [Compound No. 60, 1,2;5,6-Di-O-isopropylidene-3-deoxy-3-{[(3,4-dichlorophenyl)-amino]thiocarbonyl}-amino-α-D-allofuranoside] | 0.3 to 10 | 
2 | CC1(C)O[C@H]2O[C@H]([C@H]3COC(C)(C)O3)[C@@H](NC(=S)Nc3ccccc3[N+](=O)[O-])[C@H]2O1 [Compound No. 67, 1,2;5,6-Di-O-isopropylidene-3-deoxy-3-{[(2-nitrophenyl)-amino]thiocarbonyl}-amino-α-D-allofuranoside] | 0.3 to 10 | 
3 | CC1(C)OCC(C2OC3OC(C)(C)OC3C2NC(=O)Cc2cccc(Cl)c2)O1 [Compound No. 84, 1,2;5,6-Di-O-isopropylidene-3-deoxy-3-{[(3-chlorophenyl)-methyl]carbonyl}-amino-α-D-allofuranoside] | 0.3 to 10 | 0.13 to 30
4 | CC1(C)OCC(C2OC3OC(C)(C)OC3C2NC(=O)Cc2ccc(Cl)c(Cl)c2)O1 [Compound No. 100, 1,2;5,6-Di-O-isopropylidene-3-deoxy-3-{[(3,4-dichlorophenyl)-methyl]carbonyl}-amino-α-D-allofuranoside] | 0.3 to 10 | 0.13 to 30
5 | CC1(C)OCC(C2OC3OC(C)(C)OC3C2NC(=S)Nc2ccc(F)cc2)O1 [Compound No. 101, 1,2;5,6-Di-O-isopropylidene-3-deoxy-3-{[(4-fluorophenyl)-amino]thiocarbonyl}-amino-α-D-glucofuranoside] |  | 0.13 to 30
6 | CC1(C)OCC(C2OC3OC(C)(C)OC3C2NC(=S)Nc2ccccc2F)O1 [Compound No. 103, 1,2;5,6-Di-O-isopropylidene-3-deoxy-3-{[(2-fluorophenyl)-amino]thiocarbonyl}-amino-α-D-glucofuranoside] | 0.3 to 10 | 0.13 to 30

The next lines start with results.

Row | IC50 [1] [µM] | Compound | IC50 [2] [µM]
7 | 0.3 to 10 | CC1(C)OCC(C2OC3OC(C)(C)OC3C2NC(=S)Nc2ccc(F)cc2)O1 [Compound No. 55, 1,2;5,6-Di-O-isopropylidene-3-deoxy-3-{[(4-fluorophenyl)-amino]thiocarbonyl}-amino-α-D-allofuranoside] | 
8 | 0.3 to 10 | CC1(C)OCC(C2OC3OC(C)(C)OC3C2NC(=S)Nc2ccc(OCc3ccccc3)cc2)O1 [Compound No. 63, 1,2;5,6-Di-O-isopropylidene-3-deoxy-3-{[(4-benzyloxyphenyl)amino]thiocarbonyl}-amino-α-D-allofuranoside] | 
9 | 0.3 to 10 | CC1(C)OCC(C2OC3OC(C)(C)OC3C2NC(=S)Nc2ccc(C#N)cc2)O1 [Compound No. 68, 1,2;5,6-Di-O-isopropylidene-3-deoxy-3-{[(4-cyanophenyl)-amino]thiocarbonyl}-amino-α-D-allofuranoside] | 
10 | 0.3 to 10 | CC1(C)OCC(C2OC3OC(C)(C)OC3C2NC(=O)Cc2ccccc2C(F)(F)F)O1 [Compound No. 80, 1,2;5,6-Di-O-isopropylidene-3-deoxy-3-{[(2-trifluoromethylphenyl)-methyl]carbonyl}-amino-α-D-allofuranoside] | 0.13 to 30
